Values after ≈ are worked out from the molar mass of the structure shown.
Key:
[1] = test system: corn root worm (CRW) Diabrotics undecimcuntata howardii; format: in vivo; conditions: at 24 ppm
Method: (§1) Pesticidal bioassays were conducted at Eli Lilly Laboratories (Greenfield, Ind.) following standard procedures with eight indicator organisms: mosquito larvae (ML) Aedes aegypti (in the media), blowfly larvae (BFL) (1% in the diet), corn root worm (CRW) Diabrotics undecimcuntata howardii (in soil), two-spotted spider mite (2SSM) Tetranychus urticae (on foliage), southern army worm (SAW) Spodoptera eridania (on foliage), melon aphid (MA) (5000 ppm on foliage), cotton aphid (CA) Aphis gossypii, (on foliage) and Haemonchus contortus (HC) (a nematode, 0.1% in the media).
(§2) Pesticidal bioassays on initial fractions were conducted at Eli Lilly Laboratories (Greenfield, Ind.) following standard procedures with seven indicator organisms: mosquito larvae (ML), blow fly larvae (BFL), corn root worm (CRW), two-spotted spider mite (2SSM), southern army worm (SAW), melon aphid (MA), and Haemonchus contortus (HC).

[2] = test system: two-spotted spider mite (2SSM) Tetranychus urticae; format: in vivo; conditions: at 10 ppm
Method: as §1, §2

[3] = test system: LOX; test: NCI in vitro cytotoxicity, melanoma; format: cell-based; conditions: Homo sapiens
Text: (§3) Isolated pure compounds were sent to the National Institute of Health, National Cancer Institute, Bethesda, Md., for testing in human cancer cell line panels including leukemia, non-small cell lung cancer, small cell lung cancer, CNS cancer, melanoma, ovarian cancer and renal cancer.
(§4) To test further the selective specificity of antitumor activities, bullatacin was sent to the NIH, NCI at Bethesda, Md., for their human tumor cell line panel tests including leukemia, non-small cell lung cancer, small cell lung cancer, colon cancer, breast cancer, CNS cancer melanoma, ovarian cancer, and renal cancer.

[4] = test system: H146; test: NCI in vitro cytotoxicity, small cell lung cancer; format: cell-based; conditions: Homo sapiens
[5] = test system: HT29; test: NCI in vitro cytotoxicity, colon cancer; format: cell-based; conditions: Homo sapiens, HT-29
[6] = test system: A2780; test: NCI in vitro cytotoxicity, ovarian cancer; format: cell-based; conditions: Homo sapiens
[7] = test system: SW620; test: NCI in vitro cytotoxicity, colon cancer; format: cell-based; conditions: Homo sapiens, SW-620
[8] = test system: P388/ADR; test: NCI in vitro cytotoxicity, leukemia; format: cell-based; conditions: Mus musculus
[9] = test system: MCF7; test: NCI in vitro cytotoxicity, breast cancer; format: cell-based; conditions: Homo sapiens
[10] = test system: OVCAR-4; test: NCI in vitro cytotoxicity, ovarian cancer; format: cell-based; conditions: Homo sapiens
[11] = test system: CCRF-CEM; test: NCI in vitro cytotoxicity, leukemia; format: cell-based; conditions: Homo sapiens
[12] = test system: A-549(ATCC); test: NCI in vitro cytotoxicity, non-small cell lung cancer; format: cell-based; conditions: Homo sapiens, A549
Text: as §3, §4

[13] = test system: cotton aphid (CA) Aphis gossypii; test: pesticidal bioassay, cotton aphid (CA); format: in vivo; conditions: at 1 ppm
Method: as §1

[14] = test system: A498; test: NCI in vitro cytotoxicity, renal cancer; format: cell-based; conditions: Homo sapiens
[15] = test system: H522; test: NCI in vitro cytotoxicity, non-small cell lung cancer; format: cell-based; conditions: Homo sapiens
[16] = test system: protein kinase C; test: protein kinase C displacement test; format: binding; conditions: 10 μM
Text: The bioassay results for the lethality of brine shrimp (BST), the inhibition of crown gall tumors on potato discs (PD), the reversal in morphology of db-cAMP induced AC glioma cells from that of mature, differentiated astrocytes to that of immature AC glioma cells (mouse brain cells) (9ASK), the dose that inhibits cell growth to one-half that of untreated poorly differentiated human epidermic carcinoma (9KB), the dose that inhibits cell growth to one-half that of a methylcholanthrene-induced lymphoid neoplasm in a DBA/2 mouse (9PS), and the percent displacement in a protein kinase C test for initial extract fractions are shown in Table 1.

[17] = test system: CAKI-1; test: NCI in vitro cytotoxicity, renal cancer; format: cell-based; conditions: Homo sapiens
[18] = test system: SNB-19; test: NCI in vitro cytotoxicity, CNS cancer; format: cell-based; conditions: Homo sapiens
[19] = test system: P388; test: NCI in vitro cytotoxicity, leukemia; format: cell-based; conditions: Mus musculus
[20] = test system: SNB-44; test: NCI in vitro cytotoxicity, CNS cancer; format: cell-based; conditions: Homo sapiens, SNB44
[21] = test system: TE-671; test: NCI in vitro cytotoxicity, CNS cancer; format: cell-based; conditions: Homo sapiens
[22] = test system: MALME-3M; test: NCI in vitro cytotoxicity, melanoma; format: cell-based; conditions: Homo sapiens
[23] = test system: H524; test: NCI in vitro cytotoxicity, small cell lung cancer; format: cell-based; conditions: Homo sapiens

CCCCCCCCCCC(O)C1CCC(C2CCC(C(O)CCCCCCCCCCC(O)CC3=CC(C)OC3=O)O2)O1 (stereo not shown) [Bullatacin]
toxicity to southern corn rootworm [1]: significantly toxic | toxicity to two-spotted spider mites [2]: significantly toxic | IC50 [3]: < 0.926 ng/mL | IC90 [3]: 3760 ng/mL (≈ 6040 nM) | IC90 [4]: > 9260 ng/mL | IC50 [5]: 3.84 ng/mL (≈ 6.16 nM) | IC90 [5]: > 92.4 ng/mL | IC50 [6]: 0.0377 ng/mL (≈ 0.0605 nM) | IC90 [6]: 0.65 ng/mL (≈ 1.04 nM) | IC50 [7]: 5.64 ng/mL (≈ 9.05 nM) | IC90 [7]: 5660 ng/mL (≈ 9090 nM) | IC50 [8]: < 0.926 ng/mL | IC90 [8]: 2560 ng/mL (≈ 4110 nM) | IC50 [9]: > 92.4 ng/mL | IC90 [9]: > 92.4 ng/mL | IC50 [10]: > 92.4 ng/mL | IC90 [10]: > 92.4 ng/mL | IC50 [11]: 0.0894 ng/mL (≈ 0.144 nM) | IC90 [11]: 69.4 ng/mL (≈ 111 nM) | IC90 [12]: > 92.4 ng/mL | toxicity to cotton aphids [13]: significantly toxic | IC50 [14]: 0.0424 ng/mL (≈ 0.0681 nM) | IC90 [14]: 3.71 ng/mL (≈ 5.96 nM) | IC50 [15]: 2460 ng/mL (≈ 3950 nM) | IC90 [15]: > 9240 ng/mL | displacement in a protein kinase C test [16]: 7% | IC50 [17]: 3.94 ng/mL (≈ 6.32 nM) | IC90 [17]: > 92.4 ng/mL | IC50 [18]: > 926 ng/mL | IC90 [18]: > 926 ng/mL | IC50 [19]: > 92.4 ng/mL | IC90 [19]: > 92.4 ng/mL | IC50 [20]: 4420 ng/mL (≈ 7100 nM) | IC90 [20]: > 9260 ng/mL | IC50 [21]: 0.0256 ng/mL (≈ 0.0411 nM) | IC90 [21]: 2.74 ng/mL (≈ 4.4 nM) | IC50 [22]: 2820 ng/mL (≈ 4530 nM) | IC90 [22]: 7670 ng/mL (≈ 12300 nM) | IC50 [23]: 2690 ng/mL (≈ 4320 nM) | IC90 [23]: 7540 ng/mL (≈ 12100 nM)

— patent publication US5229419A, “Chemotherapeutically active acetogenins” (Purdue Research Foundation, priority 1992, dated 1993)
